Results reported in paper PMC9739780, “Pharmacokinetic Comparison of Eight Major Compounds of Lonicerae japonicae flos after Oral Administration in Normal Rats and Rats with Liver Injury” (Molecules, 2022).

Key:
[1] = Pharmacokinetics after oral administration of LJF extract in normal rats; assay type: in vivo, Sprague-Dawley rats
Protocol: (§1) This method has been successfully applied to study the pharmacokinetics of LJF orally in normal rats and acute liver injury rats. The pharmacokinetic parameters were analyzed using the […] model analysis on the DAS 2.0 platform. The mean plasma concentration–time curves of 3-CQA, 4-CQA, 5-CQA, 3,5-diCQA, 4,5-diCQA, PA, Secoxyloganin, and Sweroside are shown in Figure 4. Pharmacokinetic parameters included: Cmax, Tmax, area under the concentration–time curve (AUC0–t), AUC0–∞, MRT0–t, and MRT0–∞, as shown in Table 6 and Figure 4.
(§2) […] male Sprague-Dawley rats with body weights of 250 ± 20 g were purchased from the Experimental Animal Center of Heilongjiang University of Chinese Medicine and fed in the SPF animal laboratory, under a standard room temperature of 25 ± 2 °C, relative humidity of 50 ± 15%, and a 12 h light/12 h dark cycle. The experiment followed the ethical norms of experimental animals of Heilongjiang University of Chinese Medicine (License number: SCXK (Hei) 2021-004). Twelve rats were randomly divided into normal and model groups of six rats each. After intraperitoneal injection of CCl4 (0.06 mL/kg) for 24 h, blood samples were collected into heparinized tubes via the orbital vein, centrifuged at 2000 r/min for 20 min, and the levels of AST and ALT in serum were determined by the microplate method.
(§3) The pharmacokinetic properties and parameters of 3-CQA, 4-CQA, 5-CQA, 3,5-diCQA, 4,5-diCQA, PA, Secoxyloganin, and Sweroside in rats were studied after oral administration of the LJF extract. […] The supernatant plasma was then transferred to a 1.5 mL centrifuge tube and stored at −20 °C for later use.
(§4) Here, 100 μL aliquots of the plasma sample were thawed and pipetted into centrifuge tubes and 10 μL of chloramphenicol solution (500 ng/mL) and daidzein solution (500 ng/mL) were added, respectively, and 780 μL of methanol was added to precipitate for 5 min. Then, the supernatant was centrifuged for 5 min at 12,000 rp/min. The supernatant was transferred to a nitrogen blowing machine and dried at 40 °C. The residue was reconstituted in 100 μL of 50% methanol, and the sample was filtered through the membrane and then injected into the UPLC-MS/MS system.
(§5) DAS 2.0 software was used to calculate the pharmacokinetic parameters of the […] model, including Cmax, Tmax, AUC0–t, AUC0–∞, MRT0–t, MRT0–∞, and t1/2. The statistical software GraphPad Prism 5.0 was used for graph plotting and statistical analysis of drug duration curves.

[2] = Pharmacokinetics after oral administration of LJF extract in CCl4-induced liver injury model rats; assay type: in vivo, Sprague-Dawley rats; conditions: for AUC(0-t) / AUC(0-inf) / Cmax / MRT inf / half-life / MRT last / Tmax: male, Sprague-Dawley
Protocol: Intraperitoneal injection of CCl4 was used to induce liver injury in rats, and the successful establishment of the model was measured by detecting ALT and AST in rat plasma.
as §1, §2, §3, §4, §5

[3] = male, Sprague-Dawley, rat, normal group (N), oral LJF ethanol extract 15.75 g/kg, plasma, mean ± SD, n = 6, read-out: Cmax
[4] = male, Sprague-Dawley, rat, normal group (N), oral LJF ethanol extract 15.75 g/kg, plasma, mean ± SD, n = 6, read-out: MRT0–t
[5] = male, Sprague-Dawley, rat, normal group (N), oral LJF ethanol extract 15.75 g/kg, plasma, mean ± SD, n = 6, read-out: MRT0–∞
[6] = male, Sprague-Dawley, rat, normal group (N), oral LJF ethanol extract 15.75 g/kg, plasma, mean ± SD, n = 6, read-out: t1/2 (converted)
[7] = rat, liver injury model group (M, CCl4), oral LJF ethanol extract 15.75 g/kg, plasma, mean ± SD, n = 6, read-out: AUC0–t
[8] = rat, liver injury model group (M, CCl4), oral LJF ethanol extract 15.75 g/kg, plasma, mean ± SD, n = 6, read-out: AUC0–∞
[9] = rat, liver injury model group (M, CCl4), oral LJF ethanol extract 15.75 g/kg, plasma, mean ± SD, n = 6, read-out: Cmax
[10] = rat, liver injury model group (M, CCl4), oral LJF ethanol extract 15.75 g/kg, plasma, mean ± SD, n = 6, read-out: MRT0–∞
[11] = rat, liver injury model group (M, CCl4), oral LJF ethanol extract 15.75 g/kg, plasma, mean ± SD, n = 6, read-out: t1/2 (converted)
[12] = result in words, oral LJF extract, rat plasma
[13] = male, Sprague-Dawley, rat, in vivo, po, 15.75 g/kg
[14] = male, Sprague-Dawley, rat, normal group (N), oral LJF ethanol extract 15.75 g/kg, plasma, mean ± SD, n = 6, read-out: AUC0–t
[15] = male, Sprague-Dawley, rat, normal group (N), oral LJF ethanol extract 15.75 g/kg, plasma, mean ± SD, n = 6, read-out: AUC0–∞
[16] = male, Sprague-Dawley, rat, normal group (N), oral LJF ethanol extract 15.75 g/kg, plasma, mean ± SD, n = 6, read-out: Tmax
[17] = rat, liver injury model group (M, CCl4), oral LJF ethanol extract 15.75 g/kg, plasma, mean ± SD, n = 6, read-out: MRT0–t
[18] = rat, liver injury model group (M, CCl4), oral LJF ethanol extract 15.75 g/kg, plasma, mean ± SD, n = 6, read-out: Tmax

SMILES	Cmax [1, 3] [ng/mL]	MRT last [1, 4] [h]	MRT inf [1, 5] [h]	half-life [1, 6] [h]	AUC(0-t) [2, 7] [ng·h/mL]	AUC(0-inf) [2, 8] [ng·h/mL]	Cmax [2, 9] [ng/mL]	MRT inf [2, 10] [h]	half-life [2, 11] [h]	AUC0–t, model group compared with the normal group [2, 12]	AUC0–∞, model group compared with the normal group [2, 12]	Cmax, model group compared with the normal group [2, 12]	Tmax, model group compared with the normal group [2, 12]	AUC(0-inf) [1, 13] [ng·h/mL]	AUC(0-t) [1, 13] [ng·h/mL]	AUC(0-t) [1, 14] [ng·h/mL]	AUC(0-inf) [1, 15] [ng·h/mL]	Tmax [1, 16] [h]	MRT last [2, 17] [h]	Tmax [2, 18] [h]	also measured
O=C(/C=C/c1ccc(O)c(O)c1)O[C@@H]1C[C@](O)(C(=O)O)C[C@@H](O)[C@H]1O [5-CQA, 5-caffeoylquinic acid]	266 ± 102	18 ± 2.34	21.4 ± 2.86	17.9 ± 9.97	3570 ± 686	3970 ± 712	1120 ± 316	20.9 ± 8.54	18.9 ± 18.4	increased	increased	increased	not significantly different								Tmax ([1]; normal group (N), oral LJF ethanol extract 15.75 g/kg, plasma, mean ± SD, n = 6): 0.24 ± 0.03405 h; MRT0–t ([2]; liver injury model group (M, CCl4), oral LJF ethanol extract 15.75 g/kg, plasma, mean ± SD, n = 6): 11.08 ± 2.42 h
C=C[C@H]1[C@H](O[C@@H]2O[C@H](CO)[C@@H](O)[C@H](O)[C@H]2O)OC=C(C(=O)OC)[C@H]1CC(=O)O [Secoxyloganin]														7610 ± 4120	6230 ± 1070						Cmax [1, 13]: 1510 ± 331 ng/mL; MRT inf [1, 13]: 12.4 ± 1.04 h; MRT last [1, 13]: 11.9 ± 1.69 h; Tmax [1, 13]: 0.46 ± 0.102 h; half-life [1, 13]: 16.1 ± 19.1 h; AUC(0-inf) ([2]; rat, in vivo, po, 15.75 g/kg): 17100 ng·h/mL; AUC(0-t) ([2]; rat, in vivo, po, 15.75 g/kg): 15000 ng·h/mL; Cmax ([2]; rat, in vivo, po, 15.75 g/kg): 4150 ± 377 ng/mL; MRT inf ([2]; rat, in vivo, po, 15.75 g/kg): 18.2 ± 2.24 h; MRT last ([2]; rat, in vivo, po, 15.75 g/kg): 8.74 ± 0.58 h; Tmax ([2]; rat, in vivo, po, 15.75 g/kg): 0.29 ± 0.102 h; half-life ([2]; rat, in vivo, po, 15.75 g/kg): 23.6 ± 3.48 h; Cmax, model group compared with the normal group ([2]; rat, in vivo, po): significantly higher; MRT0–∞, model group compared with the normal group ([2]; rat, in vivo, po): significantly higher; Tmax, model group compared with the normal group ([2]; rat, in vivo, po): significantly lower
O=C(/C=C/c1ccc(O)c(O)c1)O[C@@H]1[C@H](O)C[C@@](O)(C(=O)O)C[C@@H]1O (stereo in doubt) [4-CQA, 4-caffeoylquinic acid]	1110 ± 448	9.65 ± 1.72	14.7 ± 4.18	15.2 ± 5.24	5970 ± 1800	6810 ± 1140	2370 ± 425	29.7 ± 24.8	42.2 ± 31.7	increased	increased	increased	significantly decreased			2170 ± 616	2340 ± 569	0.208 ± 0.0457	10.1 ± 1.06	0.14 ± 0.043	
O=C(/C=C/c1ccc(O)c(O)c1)O[C@H]1C[C@](O)(C(=O)O)C[C@@H](O)[C@H]1O [3-CQA, 3-caffeoylquinic acid]	5110 ± 1220	13.9 ± 1.31	18.2 ± 1.94	12.9 ± 0.765	16400	17400	6290 ± 1260	23.3 ± 11.2	12.2 ± 3.12	significantly increased	significantly increased	increased but there was no significant difference				12100	13100	0.208 ± 0.0457	13.4 ± 1.67	0.19 ± 0.043	
C=C[C@H]1[C@H](O[C@@H]2O[C@H](CO)[C@@H](O)[C@H](O)[C@H]2O)OC=C2C(=O)OCC[C@H]21 [Sweroside]														10000	9690 ± 1410						Cmax [1, 13]: 1930 ± 609 ng/mL; MRT0–t [1, 13]: 12.29 ± 1.14 h; MRT inf [1, 13]: 13.9 ± 1.86 h; Tmax [1, 13]: 0.53 ± 0.38 h; half-life [1, 13]: 9.78 ± 2.87 h; AUC(0-inf) ([2]; rat, in vivo, po, 15.75 g/kg): 16700 ng·h/mL; AUC(0-t) ([2]; rat, in vivo, po, 15.75 g/kg): 16000 ng·h/mL; Cmax ([2]; rat, in vivo, po, 15.75 g/kg): 2364.23 ± 440 ng/mL; MRT inf ([2]; rat, in vivo, po, 15.75 g/kg): 13.7 ± 1.33 h; MRT last ([2]; rat, in vivo, po, 15.75 g/kg): 11.3 ± 0.48 h; Tmax ([2]; rat, in vivo, po, 15.75 g/kg): 0.67 ± 0.26 h; half-life ([2]; rat, in vivo, po, 15.75 g/kg): 11.8 ± 1.51 h; AUC0–∞, model group compared with the normal group ([2]; rat, in vivo, po): significantly higher; Cmax, model group compared with the normal group ([2]; rat, in vivo, po): increased compared with that in the normal group, but there was no significant difference
O=C(O)c1ccc(O)c(O)c1 [PA, protocatechuic acid]	22.6 ± 8.36	23.2 ± 0.86	44.1 ± 16.9	24.8 ± 12.8	219 ± 59.1	547 ± 209	23 ± 2.97	49.8 ± 28.9	25.5 ± 17		increased		reached the peak earlier			198 ± 37	292 ± 26	0.33 ± 0.13	26.6 ± 2.13	0.18 ± 0.034	clearance rate, model group compared with the normal group ([2]; result in words, oral LJF extract): decreased; MRT0–t, model group compared with the normal group [2, 12]: prolonged
